Measurements as given in patent US20250295617A1, “METABOLITES FOR TREATMENT AND PREVENTION OF AUTOIMMUNE DISEASE” (MONASH UNIVERSITY, priority 2016, published 2025).

Tests used:
[1] = tested on: pancreatic islets; assay: Insulitis scoring of pancreatic islets; format: in vivo, mouse; settings: 10 weeks of age, 5 weeks after starting acetate treatment
Text: Pancreatic tissue was processed and stained using standard procedures. For insulitis scoring, pancreata sections were taken at 3 […] (100 μm apart). At least 100 islets were scored from 5 to 15 mice. Islets were graded according to the following system: Grade 0—no indication of insulitis, Grade 1—<25% infiltration, Grade 2—25-50% infiltration, Grade 3—50-75% infiltration, and Grade 4—>75% infiltration.

[2] = tested on: female NOD mice; settings: acetate in drinking water from 5 weeks of age
Procedure: To standardise microbiota, prior to beginning diets mice from multiple litters were mixed and randomly allocated to groups. The purified diets used were based on a balanced modification of the AIN93-G diet as described previously (Bajka et al., 2006). Mice were fed for 3-5 weeks starting at 3, 5 or 10 weeks of age. SCFAs in faeces, blood and caecal content were analysed as previously described in (Bajka et al., 2006). Diabetes was monitored as previously described (Mariño et al., 2009).
To determine whether oral administration of acetate (to increase its concentration in the circulation) could modulate disease progression, acetate was added to the drinking water of NOD female mice.

With `CC(=O)[O-].[Na+]` [acetate, sodium acetate] the “insulitis (islet infiltration)” value [1] was “more pancreatic islets without immune cell infiltration, and fewer islets with high-grade infiltration”, the development of diabetes ([2]; vs controls) was “significantly delayed” and the T1D incidence ([2]; at age 30 weeks) was 40%.
